Test results taken from patent publication US20240132463A1, “SUBSTITUTED N-(2-(2,6-DIOXOPIPERIDIN-3-YL)-1,3-DIOXOISOINDOLIN-5-YL)ARYLSULFONAMIDE ANALOGS AS MODULATORS OF CEREBLON PROTEIN” (ST. JUDE CHILDREN'S RESEARCH HOSPITAL, INC., priority 2020, published 2024).

Key:
[1] = system: MDCKII-MDR1 cells; assay: MDCKII-MDR1 permeability assay; format: in vitro ADME; details: permeability in MDCK-MDR1 cells
Protocol: High throughput […]1 permeability was performed in the Transwell® 0.4 μm polycarbonate membrane 96-well system with modified methods (Refs. 38-39). […]1 cells were maintained at 37° C. in a humidified incubator with an atmosphere of 5% CO2. The cells were cultured in 75 cm^2 flasks with Dulbecco's Modified Eagle's Medium (DMEM) containing 10% fetal bovine serum (FBS), 1% non-essential amino acids (NEAA), 100 units/ml of penicillin, and 100 μg/ml of streptomycin. The […]1 cells were seeded onto inserts at a density of 2×10^4 and 1×10^4 cells/insert separately. The medium in the wells was exchanged each other day, and the trans epithelial electrical resistance (TEER) value was measured using an epithelial volt-ohm meter (Millipore, Billerica, Massachusetts). […] For transport experiments, each cultured monolayer on the 96-well plate was washed twice with a transport buffer (HBSS/25 mM HEPES, pH 7.4). The permeability assay was initiated by the addition of each compound solution (10 μmol/L) into inserts (apical side, A) or receivers (basolateral side, B). The MDCKII-MDR1 cell monolayers were incubated for 1 hour at 37° C. Fractions were collected from receivers (if apical to basal permeability) or inserts (if basal to apical permeability), and concentrations were assessed by UPLC/MS (Waters; Milford, MA). All compounds were tested in triplicates. The A→B (or B→A) apparent permeability coefficients (Papp) of each compound were calculated using the equation, Papp=dQ/dt×1/AC0, where dQ/dt equals the flux of a drug across the monolayer, A equals the total insert well surface area, and C0 is the initial concentration of substrate in the donor compartment. The efflux ratio was determined by dividing the Papp in the B-A direction by the Papp in the A-B direction.

[2] = target: IKZF1 (Homo sapiens (Human), UniProt Q13422+Q96SW2); assay: IKZF1 degradation by immunoblot in MV4-11 cells; format: cell-based; details: MV4-11 cells
Protocol: MV4-11 cells were seeded in 6-well plates (1×10^6 cells per well). After overnight incubation, the cells were treated with indicated concentrations for specific timepoints. […] After blocking the membrane with LI-COR TBS blocking buffer and incubation in primary antibody overnight, the corresponding protein signals were detected using IRDye secondary antibodies and Odyssey Imaging System. Image Studio Lite Ver 5.2 was used for blot quantification. […] IRDye® 800CW Goat anti-Mouse IgG Secondary Antibody and IRDye® 68ORD Goat anti-Rabbit IgG Secondary Antibody were used as secondary antibodies.

[3] = system: MV4-11 cells; assay: Lenalidomide competition assay; format: cell-based, human; details: co-treatment with lenalidomide 10 μM, 72 h
Protocol: Compounds were screened in human cancer cell lines and each cell line was cultured in the complete medium recommended by the vendor and seeded in Corning 8804BC white 384-well assay plates at density of 1,000, 1,000, 1,000, 1,500 and 7,500 cells per well, for MV4-11, HD-MB03, MB004, MB002 and MHH-CALL4 cells respectively. After overnight incubation at 37° C. in a humidified 5% CO2 incubator, cells were treated with compounds in dose-response format using a Pintool on a Biomek FXP Laboratory Automation Workstation (Beckman Coulter). […] After 72 h incubation, cell proliferation was assessed using Cell Titer-Glo (CTG) luminescent cell viability assay (Promega) according to the manufacturer's instruction. Luminescence signal was measured using an Envision plate reader (Perkin-Elmer).

[4] = Pharmacokinetics (PK) study in CD1 mice; format: in vivo, mouse
Protocol: Healthy female CD1 mice (8-12 weeks old) weighing between 20 to 30 g were procured from Global, India. Three mice were housed in each cage. Temperature and humidity were maintained at 22±3° C. and 30-70%, respectively and illumination was controlled to give a sequence of 12 hr light and 12 hr dark cycle. Temperature and humidity were recorded by auto-controlled data logger system. All the animals were provided laboratory rodent diet (Envigo Research private Ltd, Hyderabad). Reverse osmosis water treated with ultraviolet light was provided ad libitum. Formulation vehicle: 5% v/v NMP: 5% v/v Solute HS-15 and 90% v/v normal saline. […] The dosing volume for intravenous was 5 mL/kg and for oral administration 10 mL/kg. Blood samples (approximately 60 μL) were collected under light isoflurane anesthesia (Surgivet®) from retro orbital plexus from a set of three mice at 0.08 (for IV only), 0.25, 0.5, 1, 2, 4, 6 (for PO only), 8, 12 and 24 hr. Immediately after blood collection, plasma was harvested by centrifugation at 4000 rpm, 10 min at […] and samples were stored at −70±10° C. until bioanalysis. […] Non-Compartmental-Analysis tool of Phoenix WinNonlin® (Version 8.0) was used to assess the pharmacokinetic parameters. Peak plasma concentration (Cmax) and time for the peak plasma concentration (Tmax) were the observed values. The areas under the concentration time curve (AUClast and AUCinf) were calculated by linear trapezoidal rule. The terminal elimination rate constant, ke was determined by regression analysis of the linear terminal portion of the log plasma concentration-time curve. Clearance was estimated as Dose/AUCinf and Vss as CL*MRT. The oral bioavailability was calculated as ratio of dose normalized AUC of oral and intravenous group multiplied by 100.

[5] = Plasma protein binding assay (human); format: in vitro ADME
Protocol: Stock solutions were prepared at 10 mM in DMSO. Dulbecco's phosphate buffered saline (DPBS; pH 7.4) was obtained from Invitrogen (Carlsbad, CA). Single-Use RED (rapid equilibrium dialysis) device was obtained from Thermo scientific (Rockford, IL). Human and mouse plasma were obtained from GeneTex (Irvine, CA). Sample preparation for plasma protein binding was modified from Waters' method (see Waters, N.J., et al., J Pharm Sci. 2008 October; 97(10):4586-95). The Teflon base plate with the RED inserts was used without any pre-conditioning the membrane inserts. Plasma was thawed and centrifuged at 1000 rpm for 10 min to remove any particulates. Each compound was prepared at 10 μM in human or mouse plasma. Spiked plasma solutions (300 μL) were placed into the sample chamber (indicated by the red ring) and 500 μL of DPBS into the adjacent chamber. The plate was sealed and incubated at 37° C. on an orbital shaker (100 rpm) for 4 hours. After incubation, the seal was removed from the RED plate and the volume of the insert confirmed-little to no volume change occurred. […] The test compound concentrations were quantified in both buffer and plasma chambers via peak areas relative to the internal standard. The percentage of the test compound bound to plasma was calculated on following equations: % Free=(Concentration buffer chamber/concentration plasma chamber)×100% and % Bound=100%-% Free.

O=C1CCC(N2C(=O)c3ccc(NS(=O)(=O)c4ccccc4OC(F)(F)F)cc3C2=O)C(=O)N1 (stereo not drawn) [Compound 1, N-(2-(2,6-dioxopiperidin-3-yl)-1,3-dioxoisoindolin-5-yl)-2-(trifluoromethoxy)benzenesulfonamide]
Papp [1]: 23 nm/s | IKZF1 degradation at 4 hours ([2]; 4 hours, any concentration tested): did not significantly degrade IKZF1 | IKZF1 protein abundance ([2]; treatment over 24 hours): dose-dependent decrease | antiproliferative effect in presence of lenalidomide [3]: abrogating the antiproliferative effects | clearance ([4]; 3 mg/kg IV): 0.0276 L/h/kg | volume of distribution ([4]; 3 mg/kg IV): 0.15 L/kg | oral bioavailability ([4]; 10 mg/kg PO vs 3 mg/kg IV): 84% | half-life ([4]; female, CD1, mouse, plasma, 3 mg/kg IV, read-out: terminal elimination half-life (t1/2) (converted)): 3.4 h | Plasma protein binding [5]: 99.1%
